# Test results as given in patent publication US20230181678A1, “NOVEL ANTIBACTERIAL PEPTIDE OR PEPTIDE ANALOG AND USE THEREOF” (CAMP THERAPEUTICS INC., priority 2020, published 2023).
# * marks the point of attachment. Octanoyl = CCCCCCCC(=O)*
# Tests used:
# E. coli ATCC 25922 = test: MIC assay, sensitizing effect of peptide on antibacterial agents; format: cell-based
# Description: (§1) All MIC assay experiments were performed using the Clinical and Laboratory Standards Institute (CLSI) guidelines (Clinical & Laboratory Standards Institute: CLSI Guidelines, 2017). Bacterial cells cultured overnight were diluted to 0.05 McFarland standard using McFarland (KIT […] PLUS INSTRUMENT, Biomerieux) in Muller Hinton II Broth (cation-adjusted) (Difco). The cells were inoculated at 1.5×10^5 CFU per 200 μL solution of each well in a 96-well plate. The peptide and the antibiotic were prepared using 2-fold serially diluted concentrations. […] Incubation was performed at 37° C. for 18 hours, and then absorbance was measured at 600 nm using an EPOCH2 microplate reader (BioTek, Winooski, USA) to calculate a MIC value. The MIC value was defined as a concentration of the antibiotic or peptide at which bacterial growth was inhibited to a level of lower than 10% growth of the positive control. Fold reduction was calculated using the following expression.
# Fold reduction=MIC of antibiotic alone/MIC of antibiotic in presence of sensitizing peptide
# Using the same MIC assay method as in Example 1, sensitizing effects of the peptide L9P (CMP1107, 1 ug/ml), which is known as a conventional sensitive AMP, and CMP1401 (1 ug/ml) were compared on existing antibacterial agents against E. coli ATCC 25922 (FIG. 5A).
# In addition, MIC screening was used to compare sensitizing effects of the competitive drug SPR741 and the peptide CMP1401 or CMP1501 on the existing antibacterial agents against E. coli ATCC 25922 (FIGS. 5B and 5C). SPR741, which is a previously known polymyxin B (PMB) analog, is a sensitive AMP, and is a drug that has been identified through preclinical experiments to be effective against Gram-negative bacteria in a case of being used together with existing Gram-positive antibiotics.
# (§2) ATCC 25922, A.b. ATCC 17978, K.p. ATCC 700603, and P.a. ATCC 27853, or CRE (E.c. NDM-1, K.p. NDM-1, or K.p. KPC) (FIGS. 9 and 10).
# [1] = test system: outer membrane of E. coli NDM-1; test: Enzyme assay, outer membrane leakage (β-lactamase release, CENTA); format: cell-based; details: peptide 0.63 or 1.30 uM, 37° C., 1 h; 200 μM CENTA
# Description: It was observed, through an enzyme assay, whether the sensitizing peptide destroyed the outer and inner membranes of Gram-negative bacteria. In the presence of the sensitizing peptide, it was observed whether in a case where 1.5 mM ONPG was used together therewith, β-galactosidase was released from E. coli ATCC 25922 for the inner membrane, and whether in a case where 200 μM CENTA was used together therewith, β-lactamase was released from E. coli NDM-1 for the outer membrane.
# Specifically, to determine leakage of the outer membrane, activity of the β-lactamase released from the outer membrane was evaluated. New Delhi metallo-β-lactamase-1 (NDm-1)-producing E. coli cells were washed three times with DPBS and suspended in the same buffer. The cells were diluted to an OD600 of 0.2 and treated with the peptide at a concentration of 0.63 or 1.30 uM at 37° C. for 1 h. After centrifugation, the supernatant was incubated with 200 μM CENTATM β-lactamase substrate at 37° C. for 1 hour. An optical density was obtained by measuring absorbance of a product of enzyme reaction at 405 nm using a microplate reader (Molecular Devices Co., Menlo Park, Calif.).
# The results are illustrated in FIGS. 12A and 12B. The y-axis is absorbance measured at 405 nm, and higher absorbance is observed as a higher amount of β-lactamase is released due to destruction of the membrane.
# Kp NDM-1 = test: MIC assay, sensitizing effect of peptide on rifampicin (CRE); format: cell-based, Klebsiella pneumoniae; details: FIG. 9F; Kp NDM-1 (CRE); peptide 4 ug/ml
# Description: as §1, §2
substance,measurement,setting,value
OctA-KKALKLAKKPLKLLK-NH2 (Octanoyl-KKALKLAKKPLKLLK-NH2) [CMP1401],Decreased MIC value of rifampicin at peptide concentration of 4 ug/ml,"E. coli ATCC 25922; FIG. 9A, E.c. ATCC 25922, peptide 4 ug/ml",2 ng/mL
same,Decreased MIC value of colisitin at peptide concentration of 4 ug/ml,"E. coli ATCC 25922; FIG. 10A, E.c. ATCC 25922, peptide 4 ug/ml",7.8 ng/mL
same,sensitizing effect on existing antibacterial agents compared with SPR741,E. coli ATCC 25922; FIGS. 5B and 5C,almost the same or much better sensitizing effect
same,sensitizing effect compared with SPR741 at half its concentration,"E. coli ATCC 25922; peptide concentration decreased by half as compared with SPR741, FIG. 5C",equal or superior effect
same,sensitizing effect on existing antibacterial agents compared with L9P,"E. coli ATCC 25922; peptides 1 ug/ml, FIG. 5A",very good sensitizing effect
same,destruction of outer membrane (β-lactamase release),[1],did not destroy these membranes
same,Decreased MIC value of rifampicin at peptide concentration of 4 ug/ml,Kp NDM-1,7.8 ng/mL
